In US20260102507A1, “CAMPTOTHECIN DERIVATIVE FOR TREATING OR PREVENTING CANCER AND ANTIBODY-DRUG CONJUGATE THEREOF” (CHENGDU BRILLIANT PHARMACEUTICAL CO., LTD., priority 2023, published 2026):

Assays:
Format in all cases: cell-based
[1] = tested on: human colon cancer cell line HCT116; assay: Cytotoxicity assay of camptothecin derivative toxins (Example A); details: 3 days incubation, Cell Titer Turbo 2.0 luminescent cell viability
Procedure: (§1) Tumor cells (human ovarian cancer cell line SK-OV-3; human colon cancer cell line HCT116; human lung adenocarcinoma cell line A549) in logarithmic growth phase were digested and adjusted to a density of approximately 3×10^4 cells/mL. The cells were plated on a white-walled 96-well plate at approximately 100 μL/well. The camptothecin derivative toxins of the Examples of the present application were serially diluted with the corresponding cell culture medium, and then mixed with the cells for incubation at 37° C. in a 5% CO2 incubator for 3 days. The growth inhibitory effect of the camptothecin derivative toxins on tumor cells was assessed by the Cell Titer Turbo 2.0 Luminescent Cell Viability Assay (Damas life, RA-GL11). Relative light unit (RLU) values were read from the cell culture plate using a microplate reader. Experimental data were analyzed using GraphPad Prism 8.0 software to calculate IC50 values. The above experiment was repeated using the following compounds as positive controls: […]

[2] = tested on: human lung adenocarcinoma cell line A549; assay: as above; details: 3 days incubation, Cell Titer Turbo 2.0 luminescent cell viability
Procedure: as §1

[3] = tested on: human ovarian cancer cell line SK-OV-3; assay: as above; details: for IC50: 3 days incubation, Cell Titer Turbo 2.0 luminescent cell viability; for tumor cell killing activity: in words, overall statement on Table 2 tumor cells, compared with SN-38 and Dxd
Procedure: as §1

[4] = tested on: human lung adenocarcinoma cell line NCI-H441; assay: Cytotoxicity assay of camptothecin derivative toxins (Example A'); details: Homo sapiens, NCI-H441, 72 h; Example A'; 3 days incubation; read-out: IC50 (nM) NCI-H441
Procedure: (§2) The camptothecin derivatives of the Examples of the present application were serially diluted with DMSO and the corresponding cell culture medium, and were added into a white-walled 96-well plate. Tumor cells (human ovarian cancer cell line SK-OV-3; human colon cancer cell line HCT116; human lung adenocarcinoma cell line A549; human lung adenocarcinoma cell line NCI-H441; human oral epidermoid carcinoma cell line KB) in logarithmic growth phase were digested and adjusted to a density of approximately 3.33×10^4 cells/mL. The cells were plated at 90 µL/well on the white-walled 96-well plate that was pre-loaded with the samples, followed by incubation at 37° C. in a 5% CO2 incubator for 3 days. The growth inhibitory effect of the small molecule compounds on tumor cells was evaluated by the Cell Titer Turbo 2.0 Luminescent Cell Viability Assay (Damas life, RA-GL11). Relative light unit (RLU) values were read from the cell culture plates using a microplate reader. Experimental data were analyzed with GraphPad Prism 8.0 software to calculate IC50 values.

[5] = tested on: human ovarian cancer cell line SK-OV-3; assay: as above; details: Homo sapiens, SK-OV-3, 72 h; Example A'; 3 days incubation; read-out: IC50 (nM) SK-OV-3
Procedure: as §2

CC[C@@]1(O)C(=O)OCc2c1cc1n(c2=O)Cc2cc3cc(C)c(F)cc3nc2-1 [STI-F-8, (S)-4-ethyl-4-hydroxy-8-fluoro-9-methyl-1,12-dihydro-14H-pyrano[3′,4′:6,7]indolizino[1,2-b]quinoline-3,14(4H)-dione]
IC50 ([1]; Homo sapiens, HCT-116, 72 h): 26.6 nM | IC50 ([2]; Homo sapiens, A549, 72 h): 52.8 nM | IC50 ([3]; Homo sapiens, SK-OV-3, 72 h): 12.4 nM | tumor cell killing activity [3]: comparable to that of SN-38 and Dxd

CCc1c2c(nc3ccc(O)cc13)-c1cc3c(c(=O)n1C2)COC(=O)[C@]3(O)CC [SN-38, reference compound]
IC50 ([1]; Homo sapiens, HCT-116, 72 h): 60.5 nM | IC50 ([2]; Homo sapiens, A549, 72 h): 523 nM | IC50 ([3]; Homo sapiens, SK-OV-3, 72 h): 30.9 nM

CCCCCc1c2c(nc3cc(F)c(N)cc13)-c1cc3c(c(=O)n1C2)COC(=O)[C@]3(O)CC [STI-G1, (S)-4-ethyl-4-hydroxy-8-fluoro-9-amino-11-pentyl-1,12-dihydro-14H-pyrano[3′,4′:6,7]indolizino[1,2-b]quinoline-3,14(4H)-dione]
IC50 ([1]; Homo sapiens, HCT-116, 72 h): 11 nM | IC50 ([2]; Homo sapiens, A549, 72 h): 9.52 nM | IC50 ([3]; Homo sapiens, SK-OV-3, 72 h): 3.7 nM | tumor cell killing activity [3]: significantly superior to that of SN-38 and Dxd

CC[C@@]1(O)C(=O)OCc2c1cc1n(c2=O)Cc2c-1nc1cc3c(cc1c2CCCCO)OCO3 [STI-E, (S)-7-ethyl-7-hydroxy-14-(4-hydroxybutyl)-10,13-dihydro-11H-[1,3]dioxolo[4,5-g]pyrano[3′,4′:6,7]indolizino[1,2-b]quinoline-8,11(7H)-dione]
IC50 ([1]; Homo sapiens, HCT-116, 72 h): 1740 nM | IC50 ([2]; Homo sapiens, A549, 72 h): 1060 nM | IC50 ([3]; Homo sapiens, SK-OV-3, 72 h): 403 nM

CC[C@@]1(O)C(=O)OCc2c1cc1n(c2=O)Cc2c-1nc1cc(F)c(C)cc1c2NCCCCO [STI-F6, (S)-4-ethyl-8-fluoro-4-hydroxy-9-methyl-11-((4-hydroxybutyl)amino)-1,12-dihydro-14H-pyrano[3′,4′:6,7]indolizino[1,2-b]quinoline-3,14(4H)-dione]
IC50 ([3]; Homo sapiens, SK-OV-3, 72 h): 2.65 nM | tumor cell killing activity [3]: significantly superior to that of SN-38 and Dxd

CCCCCc1c2c(nc3cc(F)c([N+](=O)[O-])cc13)-c1cc3c(c(=O)n1C2)COC(=O)[C@]3(O)CC [STI-G03, (S)-4-ethyl-4-hydroxy-8-fluoro-9-nitro-11-pentyl-1,12-dihydro-14H-pyrano[3′,4′:6,7]indolizino[1,2-b]quinoline-3,14(4H)-dione]
IC50 ([1]; Homo sapiens, HCT-116, 72 h): 268 nM | IC50 ([2]; Homo sapiens, A549, 72 h): 322 nM | IC50 ([3]; Homo sapiens, SK-OV-3, 72 h): 137 nM

CCCSCc1c2c(nc3cc(F)c(Br)cc13)-c1cc3c(c(=O)n1C2)COC(=O)[C@]3(O)CC [STI-G2-06C, (S)-9-bromo-4-ethyl-8-fluoro-4-hydroxy-11-((propylthio)methyl)-1,12-dihydro-14H-pyrano[3′,4′:6,7]indolizino[1,2-b]quinoline-3,14(4H)-dione]
IC50 ([1]; Homo sapiens, HCT-116, 72 h): 81.3 nM | IC50 ([2]; Homo sapiens, A549, 72 h): 216 nM | IC50 ([3]; Homo sapiens, SK-OV-3, 72 h): 57.8 nM | tumor cell killing activity [3]: comparable to that of SN-38 and Dxd

CC[C@@]1(O)C(=O)OCc2c1cc1n(c2=O)Cc2c-1nc1cc(F)c(C)cc1c2CNCC(C)(C)C [STI-A, (S)-4-ethyl-4-hydroxy-8-fluoro-9-methyl-11-((neopentylamino)methyl)-1,12-dihydro-14H-pyrano[3′,4′:6,7]indolizino[1,2-b]quinoline-3,14(4H)-dione]
IC50 ([1]; Homo sapiens, HCT-116, 72 h): 39.9 nM | IC50 ([2]; Homo sapiens, A549, 72 h): 115 nM | IC50 ([3]; Homo sapiens, SK-OV-3, 72 h): 29.3 nM | tumor cell killing activity [3]: comparable to that of SN-38 and Dxd

CCCCCNc1c2c(nc3cc(F)c(C)cc13)-c1cc3c(c(=O)n1C2)COC(=O)[C@]3(O)CC [STI-F-13]
tumor cell killing activity [3]: significantly superior to that of SN-38 and Dxd

CCCSCc1c2c(nc3cc(F)c(N)cc13)-c1cc3c(c(=O)n1C2)COC(=O)[C@]3(O)CC [STI-G2, (S)-9-amino-4-ethyl-8-fluoro-4-hydroxy-11-((propylthio)methyl)-1,12-dihydro-14H-pyrano[3′,4′:6,7]indolizino[1,2-b]quinoline-3,14(4H)-dione]
IC50 ([1]; Homo sapiens, HCT-116, 72 h): 11 nM | IC50 ([2]; Homo sapiens, A549, 72 h): 14.9 nM | IC50 ([3]; Homo sapiens, SK-OV-3, 72 h): 2.19 nM | tumor cell killing activity [3]: significantly superior to that of SN-38 and Dxd

CC[C@@]1(O)C(=O)OCc2c1cc1n(c2=O)Cc2c-1nc1cc(F)c(C)c3c1c2[C@@H](NC(=O)CO)CC3 [DXD, Dxd, reference compound]
IC50 [1]: 49.3 nM | IC50 [2]: 413 nM | IC50 [3]: 41.4 nM

CCCCCc1c2c(nc3cc(F)c(NC(=O)CO)cc13)-c1cc3c(c(=O)n1C2)COC(=O)[C@]3(O)CC [STI-G5, (S)—N-(4-ethyl-8-fluoro-4-hydroxy-3,14-dioxo-11-pentyl-3,4,12,14-tetrahydro-1H-pyrano[3′,4′:6,7]indolizino[1,2-b]quinolin-9-yl)-2-hydroxyacetamide]
IC50 [4]: 2.22 nM | IC50 [5]: 10.3 nM

CC[C@@]1(O)C(=O)OCc2c1cc1n(c2=O)Cc2c-1nc1cc(F)c(C)cc1c2CCl [STI-A-4, (S)-4-ethyl-4-hydroxy-8-fluoro-9-methyl-11-(chloromethyl)-1,12-dihydro-14H-pyrano[3′,4′:6,7]indolizino[1,2-b]quinoline-3,14(4H)-dione]
IC50 ([1]; Homo sapiens, HCT-116, 72 h): 222 nM | IC50 ([2]; Homo sapiens, A549, 72 h): 757 nM | IC50 ([3]; Homo sapiens, SK-OV-3, 72 h): 71.8 nM

CC[C@@]1(O)C(=O)OCc2c1cc1n(c2=O)Cc2c-1nc1cc(F)c(C)cc1c2CNCC1CCCC1 [STI-A2, (S)-4-ethyl-4-hydroxy-8-fluoro-9-methyl-11-(((cyclopentylmethyl)amino)methyl)-1,12-dihydro-14H-pyrano[3′,4′:6,7]indolizino[1,2-b]quinoline-3,14(4H)-dione]
IC50 ([1]; Homo sapiens, HCT-116, 72 h): 52.5 nM | IC50 ([2]; Homo sapiens, A549, 72 h): 107 nM | IC50 ([3]; Homo sapiens, SK-OV-3, 72 h): 30.8 nM | tumor cell killing activity [3]: comparable to that of SN-38 and Dxd

CC[C@@]1(O)C(=O)OCc2c1cc1n(c2=O)Cc2c-1nc1cc(F)c(C)cc1c2C(=O)O [STI-F-01, (S)-4-ethyl-8-fluoro-4-hydroxy-9-methyl-3,14-dioxo-3,4,12,14-tetrahydro-1H-pyrano[3′,4′:6,7]indolizino[1,2-b]quinoline-11-carboxylic acid]
IC50 ([1]; Homo sapiens, HCT-116, 72 h): 322 nM | IC50 ([2]; Homo sapiens, A549, 72 h): 1050 nM | IC50 ([3]; Homo sapiens, SK-OV-3, 72 h): 131 nM

CC[C@@]1(O)C(=O)OCc2c1cc1n(c2=O)Cc2c-1nc1cc(F)c(C)cc1c2N [STI-F-03C-1, (S)-4-ethyl-4-hydroxy-8-fluoro-9-methyl-11-amino-1,12-dihydro-14H-pyrano[3′,4′:6,7]indolizino[1,2-b]quinoline-3,14(4H)-dione]
IC50 ([1]; Homo sapiens, HCT-116, 72 h): 38.2 nM | IC50 ([2]; Homo sapiens, A549, 72 h): 1080 nM | IC50 ([3]; Homo sapiens, SK-OV-3, 72 h): 19.9 nM | tumor cell killing activity [3]: comparable to that of SN-38 and Dxd

CC[C@@]1(O)C(=O)OCc2c1cc1n(c2=O)Cc2c-1nc1cc(F)c(C)cc1c2NC(=O)C(O)C1CC1 (stereo partly drawn) [STI-F, 2-cyclopropyl-N—((S)-4-ethyl-8-fluoro-4-hydroxy-9-methyl-3,14-dioxo-3,4,12,14-tetrahydro-1H-pyrano[3′,4′:6,7]indolizino[1,2-b]quinolin-11-yl)-2-hydroxyacetamide]
IC50 ([3]; Homo sapiens, SK-OV-3, 72 h): 45.5 nM | tumor cell killing activity [3]: comparable to that of SN-38 and Dxd

CC[C@@]1(O)C(=O)OCc2c1cc1n(c2=O)Cc2cc3cc4c(cc3nc2-1)OCO4 [STI-E-05, (S)-7-ethyl-7-hydroxy-10,13-dihydro-11H-[1,3]dioxolo[4,5-g]pyrano[3′,4′:6,7]indolizino[1,2-b]quinoline-8,11(7H)-dione]
IC50 ([1]; Homo sapiens, HCT-116, 72 h): 32.9 nM | IC50 ([2]; Homo sapiens, A549, 72 h): 70.3 nM | IC50 ([3]; Homo sapiens, SK-OV-3, 72 h): 12.7 nM | tumor cell killing activity [3]: comparable to that of SN-38 and Dxd

CCCCCNc1c2c(nc3cc(F)c(C)cc13)-c1cc3c(c(=O)n1C2)COC(=O)[C@]3(O)CC [STI-F13, (S)-4-ethyl-8-fluoro-4-hydroxy-9-methyl-11-(pentylamino)-1,12-dihydro-14H-pyrano[3′,4′:6,7]indolizino[1,2-b]quinoline-3,14(4H)-dione]
IC50 ([3]; Homo sapiens, SK-OV-3, 72 h): 2.37 nM

CC[C@@]1(O)C(=O)OCc2c1cc1n(c2=O)Cc2c-1nc1cc(F)c(C)cc1c2NCCCCN [STI-F7, (S)-11-((4-aminobutyl)amino)-4-ethyl-8-fluoro-4-hydroxy-9-methyl-1,12-dihydro-14H-pyrano[3′,4′:6,7]indolizino[1,2-b]quinoline-3,14(4H)-dione]
IC50 ([3]; Homo sapiens, SK-OV-3, 72 h): 285 nM

CC[C@@]1(O)C(=O)OCc2c1cc1n(c2=O)Cc2c-1nc1cc(F)c(C)cc1c2NC(=O)CO [STI-F2, (S)—N-(4-ethyl-4-hydroxy-8-fluoro-9-methyl-3,14-dioxo-3,4,12,14-tetrahydro-1H-pyrano[3′,4′:6,7]indolizino[1,2-b]quinolin-11-yl)-2-hydroxyacetamide]
IC50 ([1]; Homo sapiens, HCT-116, 72 h): 945 nM | IC50 ([2]; Homo sapiens, A549, 72 h): 2370 nM | IC50 ([3]; Homo sapiens, SK-OV-3, 72 h): 317 nM
